{"source": "patent US6610744B2", "about": "“Methods of treatment with compounds having RARα receptor specific or selective activity” (Allergan, Inc., priority 1995, dated 2003)", "key": {"RXRβ": {"biological_target": "T1, RXRβ (Homo sapiens, UniProt P28702)", "T1 construct": "made in house; host or cells: Baculovirus expression (insect cell extract)", "T1 sequence (P28702 1-533)": "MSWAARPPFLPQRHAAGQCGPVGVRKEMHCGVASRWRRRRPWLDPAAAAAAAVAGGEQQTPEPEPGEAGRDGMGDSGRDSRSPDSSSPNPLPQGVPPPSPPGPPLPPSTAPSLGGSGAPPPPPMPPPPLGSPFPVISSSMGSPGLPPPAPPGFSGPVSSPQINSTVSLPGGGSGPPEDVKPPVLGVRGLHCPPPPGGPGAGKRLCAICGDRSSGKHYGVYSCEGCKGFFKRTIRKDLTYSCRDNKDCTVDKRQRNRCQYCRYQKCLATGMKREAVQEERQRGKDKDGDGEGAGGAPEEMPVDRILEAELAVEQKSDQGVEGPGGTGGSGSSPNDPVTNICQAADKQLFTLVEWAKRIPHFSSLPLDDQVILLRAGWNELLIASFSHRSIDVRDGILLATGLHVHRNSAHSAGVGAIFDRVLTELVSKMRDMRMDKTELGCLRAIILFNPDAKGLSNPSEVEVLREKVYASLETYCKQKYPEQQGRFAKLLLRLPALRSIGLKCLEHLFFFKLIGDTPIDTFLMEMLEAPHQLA", "assay": "Ligand binding assay, RXRβ", "method": "All binding assays were performed in a similar fashion. All six receptor types were derived from the expressed receptor type (RARα, β, Γ and RXRα, β, Γ) expressed in Baculovirus. Stock solutions of all compounds were prepared as 10 mM ethanol solutions and serial dilutions carried out into 1:1 DMSO; ethanol. Assay buffers consisted of the following for all six receptor assays: 8% glycerol, 120 mM KCl 8 mM Tris, 5 mM CHAPS 4 mM DTT and 0.24 mM PMSF, pH-7.4@ room temperature.\nAll receptor binding assays were performed in the same manner. The final assay volume was 250 μl and contained from 10-40 μg of extract protein depending on receptor being assayed along with 5 nM of [^3H] all-trans retinoic acid or 10 nM [^3H] 9-cis retinoic acid and varying concentrations of competing ligand at concentrations that ranged from 0-10^−5 M. The assays were formatted for a 96 well minitube system. Incubations were carried out at 4° C. until equilibrium was achieved. Non-specific binding was defined as that binding remaining in the presence of 1000 nM of the appropriate unlabeled retinoic acid isomer. At the end of the incubation period, 50 μl of 6.25% hydroxyapitite was added in the appropriate wash buffer. The wash buffer consisted of 100 mM KCl, 10 mM Tris and either 5 mM CHAPS (RXRα, β, Γ) or 0.5% Triton X-100 (RARα, β, Γ). The mixture was vortexed and incubated for 10 minutes at 4° C., centrifuged and the supernatant removed. The hydroxyapitite was washed three more times with the appropriate wash buffer. The receptor-ligand complex was adsorbed by the hydroxyapitite. The amount of receptor-ligand complex was determined by liquid scintillation counting of hydroxyapitite pellet.\nAfter correcting for non-specific binding, IC50 values were determined. […] The IC50 value was determined graphically from a loglogit plot of the data. The […] were determined by application of the Cheng-Prussof equation to the IC50 values, the labeled ligand concentration and the Kd of the labeled ligand.\nThe results of ligand binding assay are expressed in Kd numbers. (See Cheng et al. Biochemical Pharmacology Vol. 22 pp 3099-3108, expressly incorporated herein by reference.)"}, "[1]": {"system": "limb bud mesenchymal cells", "assay": "Chondrogenesis suppression bioassay (teratogenic potency)", "type": "cell-based", "settings": "read-out: IC50 (50% inhibition of chondrogenesis); mouse limb bud spot cultures, 96 hours after plating; greater IC50 signifies lesser teratogenecity", "method": "High-density “spot” cultures of limb bud mesenchymal cells are used to compare the ability of various concentrations of test drugs to suppress chondrogenic differentiation as a bioassay. Forelimb buds of mouse embryos on day 12 of gestation (54±2 somites) are dissociated in a trypsin-EDTA solution, and the resultant single-cell suspension is plated as 20-μl spots (200,000 cells/spot) on plastic culture dishes. Retinoid concentrations ranging from 0.3 ng/ml to 3 μg/ml (1 nM−10 μM) are added to the culture medium (Eagle's MEM±10% fetal bovine serum, GIBCO) 24 hours after initial plating. Control cultures receive only the vehicle (ethanol, concentration≦1% by vol); Retinoic acid is used as a positive control in another set of cultures.\nThe cultures are terminated 96 hours after plating, at which time the medium is removed and the cells are fixed for 1 hour in 10% formalin containing 0.5% cetylpyridinium chloride. The cultures are rinsed in acetic acid and stained for 1 hour in 0.5% Alcian blue solution at pH 1.0, differentiated in 3% acetic acid, and then dehydrated in ethanol and scored for chondrogenesis under the microscope. An absence or reduction in the number of cartilage nodules in stained cultures as compared with control cultures is taken as a measure of suppression of chondrogenesis. The number of cartilage nodules stained in the whole spot, mean number of nodules, and standard deviations are calculated for four replicate cultures per treatment. […] The IC50 values are expressed in nanogram per mililiter (ng/ml) units. An IC50 value of greater concentration in this assay signifies lesser teratogenecity."}, "[2]": {"assay": "Weight loss in rats treated for 3 days", "type": "in vivo, rat", "method": "Weight loss or gain that experimental animals experience upon administration of retinoid compounds is another test of the drug's toxicity, with significant weight loss at relatively low doses indicating a significant toxic side effect of the retinoid. In one experiment, groups of 5 rats were treated with varying doses (administered in corn oil) of a test retinoid for 3 days. The rats were euthanized 24 hours after the last dose."}, "[3]": {"assay": "Guinea pig osmotic pump toxicity experiment", "type": "in vivo", "settings": "guinea pigs, intraperitoneal osmotic pump, 14 days; for depression of weight gain relative to control: FIG. 8", "method": "In another experiment three-week old male Hartley guinea pigs were implanted intraperitonially with osmotic pumps containing 20% DMSO/80 polyethylene glycol (vehicle) or Compound 42 at concentrations of 4.4, 13.3 or 40 mg/ml in vehicle. Based on the initial body weights and known pumping rate, approximate doses of 0, 2, 6, and 18 mg/kg/day doses of Compound 42 are estimated. Body weights and clinical observations were recorded at least every other day for 14 days post-implantation. The guinea pigs were euthanized after 14 days, and the pumps were examined for possible failure."}}}
{"smiles": "CC(C)(C)c1cc(C(=O)Nc2ccc(C(=O)O)c(F)c2)cc(C(C)(C)C)n1", "note": "[Compound 42]", "values": [{"measurement": "Kd", "setting": "RXRβ", "value": "> 1000", "unit": "nM"}, {"measurement": "IC50", "setting": "[1]", "value": 0.065, "unit": "µg/mL"}, {"measurement": "mucocutaneous toxicity", "setting": "[2]; rats, 10, 30 and 90 μmol/kg/day for 3 days", "value": "significant mucocutaneous toxicity was not observed"}, {"measurement": "weight loss compared to control", "setting": "[2]; rats, daily doses up to 90 μmol/kg/day in corn oil for 3 days, FIG. 6, FIG. 7", "value": "virtually no weight loss, as compared to the control, except in a very high dose (90 μmol/kg/day)"}, {"measurement": "mucocutaneous toxicity", "setting": "[3]; any dose (2, 6, 18 mg/kg/day)", "value": "no signs of mucocutaneous toxicity"}, {"measurement": "depression of weight gain relative to control", "setting": "[3]; high dose (18 mg/kg/day)", "value": "Significant depression of weight gain"}, {"measurement": "depression of weight gain relative to control", "setting": "[3]; lower and middle doses (approx. 2 and 6 mg/kg/day)", "value": "no, or only statistically insignificant depression of weight gain"}]}
